Experimental data as given in patent EP4603105A1, “PHARMACEUTICAL COMPOSITION CONTAINING CYCLIC COMPOUND HAVING SELECTIVE KRAS INHIBITORY EFFECT AGAINST HRAS AND NRAS” (CHUGAI SEIYAKU KABUSHIKI KAISHA, priority 2022, dated 2024).
Where a SMILES comes first, the peptide text is derived from it. Bridges are numbered along the chain shown (N, C = ends). [ ]: non-standard residue; d: D form. The star is where a group is joined. hPhe(3,5-F2-4-CF3) = N[C@@H](CCc1cc(F)c(C(F)(F)F)c(F)c1)C(=O)O; hPhe(3-Cl-4-CF3) = N[C@@H](CCc1ccc(C(F)(F)F)c(Cl)c1)C(=O)O; NPrPhe(4-CF3) = CCCN[C@@H](Cc1ccc(C(F)(F)F)cc1)C(=O)O; NMeGly(cPent) = CN[C@H](C(=O)O)C1CCCC1; Pro(4,4-F2) = O=C(O)[C@@H]1CC(F)(F)CN1; Hyp = O=C(O)[C@@H]1C[C@@H](O)CN1; NMeD = CN[C@@H](CC(=O)O)C(=O)O; NMeL = CN[C@@H](CC(C)C)C(=O)O; αMeS = C[C@](N)(CO)C(=O)O; Morpholide = C1CN(*)CCO1; Ac5c = NC1(C(=O)O)CCCC1; Aze = O=C(O)[C@@H]1CCN1; Ac4c = NC1(C(=O)O)CCC1; Sar = CNCC(=O)O; Allyl = C=CC*

Legend:
[1] = target: GDP-bound NRAS wild-type protein (Homo sapiens, UniProt P01111); assay: Binding to NRAS by surface plasmon resonance (SPR), KD and KD ratio to KRAS
Method in brief: (§1)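 GDP-loaded biotinylated Avi-tag RAS proteins (E. coli-expressed) captured on a Biotin CAPture chip at ~100–300 RU; single-cycle kinetics at 30°C, 100 µL/min, 75 s injections of rising compound concentrations. HBS pH 7.4 running buffer with 1 mM DTT, 10 mM MgCl2, 10 µM GDP, 4% DMSO. KD from 1:1 binding fit.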

[2] = target: GDP-bound KRAS wild-type protein (Homo sapiens, UniProt P01116); assay: Binding to KRAS by surface plasmon resonance (SPR), dissociation constant KD
Method in brief: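 Compound binding is evaluated by SPR single-cycle kinetics, with concentrations added intermittently from low to high for 75 s each. Target surfaces carry GDP-loaded biotinylated Avi-RAS at about 100–300 RU, regenerated after each cycle; temperature 30°C. A 1:1 binding model gives KD.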

HRAS wild-type protein = HRAS wild-type protein (Homo sapiens, UniProt P01112); assay: Binding to HRAS by surface plasmon resonance (SPR), KD and KD ratio to KRAS
Method in brief: as §1

[3] = tested on: human lung cancer strain NCI-H441; format: cell-based
Method in brief: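 Readout: […] after the ATP-based reagent. Compound: serial dilutions in dimethyl sulfoxide.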

[4] = ratio of the KD value with respect to GDP-bound NRAS wild-type protein to the KD value with respect to KRAS
[5] = Single Cycle Kinetics, 1:1 binding model
[6] = ratio of the KD value with respect to HRAS wild-type protein to the KD value with respect to KRAS
[7] = ratio of KD for GDP-bound NRAS wild-type protein to KD for KRAS
[8] = ratio of KD for HRAS wild-type protein to KD for KRAS
[9] = ratio of KD value for GDP-bound NRAS wild-type protein to KD value for KRAS (SPR)
[10] = ratio of KD value for HRAS wild-type protein to KD value for KRAS (SPR)

HRAS wild-type protein, sequence (P01112 whole entry): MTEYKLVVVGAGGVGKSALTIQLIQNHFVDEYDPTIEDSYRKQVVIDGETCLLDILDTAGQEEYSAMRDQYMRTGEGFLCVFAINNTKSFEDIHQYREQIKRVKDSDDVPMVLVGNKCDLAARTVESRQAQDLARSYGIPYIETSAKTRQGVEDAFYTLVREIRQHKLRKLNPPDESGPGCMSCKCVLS
GDP-bound NRAS wild-type protein, sequence (P01111 whole entry): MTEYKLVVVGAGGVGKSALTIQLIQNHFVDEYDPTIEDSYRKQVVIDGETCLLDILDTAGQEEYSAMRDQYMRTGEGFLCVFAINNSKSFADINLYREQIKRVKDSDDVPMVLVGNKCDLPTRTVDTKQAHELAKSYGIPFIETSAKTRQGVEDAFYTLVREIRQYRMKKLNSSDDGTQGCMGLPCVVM
GDP-bound KRAS wild-type protein, sequence (P01116 1-188 isoform P01116-2): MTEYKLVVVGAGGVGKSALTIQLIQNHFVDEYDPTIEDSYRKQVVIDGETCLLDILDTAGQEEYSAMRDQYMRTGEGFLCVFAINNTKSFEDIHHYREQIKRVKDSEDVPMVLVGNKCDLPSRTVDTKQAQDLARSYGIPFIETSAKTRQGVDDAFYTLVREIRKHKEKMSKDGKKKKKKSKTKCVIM

| SMILES | NRAS /KRAS [1, 4] | Kd [2, 5] [nM] | HRAS /KRAS (HRAS wild-type protein; [6]) | IC50 [3] [nM] | NRAS /KRAS [1, 7] | Kd ([2]; Single Cycle Kinetics) [nM] | HRAS /KRAS (HRAS wild-type protein; [8]) | Kd ([2]; 1:1 binding model) [nM] | NRAS /KRAS [1, 9] | HRAS /KRAS (HRAS wild-type protein; [10]) |
| --- | --- | --- | --- | --- | --- | --- | --- | --- | --- | --- |
| CCC[C@H]1C(=O)N[C@@H](C2CCCC2)C(=O)N(C)CC(=O)N(C)[C@H]2C/C=C\CCN(C2=O)[C@@H](Cc2ccc(C)cc2)C(=O)N(C)CC(=O)N[C@@H](CCc2ccc(C(F)(F)F)c(Cl)c2)C(=O)N2C[C@H](OCC)C[C@H]2C(=O)NC2(CC(C)(C)C2)C(=O)N(C)[C@@H](CC(F)(F)F)C(=O)N(C)[C@H](C(=O)N(C)C)CC(=O)N1C [PP2192] | A (a compound having 10 or more and less than 20 is denoted as A) | 3.3 | A (a compound having 10 or more and less than 20 is denoted as A) | 91.9 | – | – | – | – | – | – |
| CCO[C@@H]1C[C@H]2C(=O)NC3(CCC3)C(=O)N(C)[C@@H](C3CCCC3)C(=O)N(C)[C@H](C(=O)N(C)C)CC(=O)N(C)[C@@H](CC)C(=O)N[C@@H]([C@@H](C)CC)C(=O)N(C)CC(=O)N(C)[C@H]3CCCCCN(C3=O)[C@@H](Cc3ccc(F)c(F)c3)C(=O)N(C)CC(=O)N[C@@H](CCc3cc(F)c(C(F)(F)F)c(F)c3)C(=O)N2C1 [PP0907] | – | – | – | 24.8 | B (a compound having 3 or more and less than 10 is denoted as B) | 0.16 | B (a compound having 3 or more and less than 10 is denoted as B) | – | – | – |
| C=CCOC[C@]1(C)NC(=O)[C@@H]2CCCN2C(=O)[C@H](CCc2cc(F)c(C(F)(F)F)c(F)c2)NC(=O)CN(C)C(=O)[C@H](Cc2ccc(C(F)(F)F)cc2)N(CCC)C(=O)CN(C)C(=O)[C@@H]2CCN2C(=O)[C@H]([C@@H](C)CC)NC(=O)[C@H](CC(C)C)N(C)C(=O)C[C@@H](C(=O)N2CCOCC2)N(C)C(=O)[C@H](C2CCCC2)N(C)C1=O [PP0780] ([NMeL]I[Aze][Sar][NPrPhe(4-CF3)][Sar][hPhe(3,5-F2-4-CF3)]P[αMeS](Allyl)[NMeGly(cPent)][NMeD]-Morpholide; lactam N-11) | – | – | – | 527 | B (a compound having 3 or more and less than 10 is denoted as B) | 7.8 | B (a compound having 3 or more and less than 10 is denoted as B) | – | – | – |
| CCCN1C(=O)CN(C)C(=O)[C@@H]2CCN2C(=O)[C@H]([C@@H](C)CC)NC(=O)[C@H](CC(C)C)N(C)C(=O)C[C@@H](C(=O)N2CCOCC2)N(C)C(=O)[C@H](C2CCCC2)N(C)C(=O)C2(CCCC2)NC(=O)[C@@H]2C[C@@H](OC)CN2C(=O)[C@H](CCc2ccc(C(F)(F)F)c(Cl)c2)NC(=O)CN(C)C(=O)[C@@H]1Cc1ccc(C(F)(F)F)cc1 [PP0309] ([NMeL]I[Aze][Sar][NPrPhe(4-CF3)][Sar][hPhe(3-Cl-4-CF3)][Hyp](Me)[Ac5c][NMeGly(cPent)][NMeD]-Morpholide; lactam N-11) | – | – | – | 11.7 | B (a compound having 3 or more and less than 10 is denoted as B) | – | B (a compound having 3 or more and less than 10 is denoted as B) | 0.29 | – | – |
| CCO[C@@H]1C[C@H]2C(=O)NC3(CC(C)(C)C3)C(=O)N(C)[C@@H](C3CCCC3)C(=O)N(C)[C@H](C(=O)N(C)CC)CC(=O)N(C)[C@H]3C/C=C/c4ccc(cc4)C[C@@H](C(=O)N(C)CC(=O)N[C@@H](CCc4ccc(Cl)c(Cl)c4)C(=O)N2C1)N1CC/C=C\C[C@@H](C1=O)N(C)C(=O)CN(C)C(=O)[C@H]([C@@H](C)CC)NC3=O [PP3056] | – | – | – | 151 | A (a compound having 10 or more and less than 20 is denoted as A) | – | A (a compound having 10 or more and less than 20 is denoted as A) | 1.4 | – | – |
| CC[C@H](C)[C@@H]1NC(=O)[C@H](CC(C)C)N(C)C(=O)C[C@@H](C(=O)N2CCOCC2)N(C)C(=O)[C@H](C2CCCC2)N(C)C(=O)C2(CCC2)NC(=O)[C@@H]2[C@H](O)CCN2C(=O)[C@H](CCc2cc(F)c(C(F)(F)F)c(F)c2)NC(=O)CN(C)C(=O)[C@H](Cc2ccc(C(F)(F)F)cc2)N2CCCCC[C@@H](C2=O)N(C)C(=O)CN(C)C1=O [PP0873] | – | – | – | 896 | A (a compound having 10 or more and less than 20 is denoted as A) | 0.86 | B (a compound having 3 or more and less than 10 is denoted as B) | – | – | – |
| CCO[C@@H]1C[C@H]2C(=O)NC3(CCC3)C(=O)N(C)[C@@H](C3CCCC3)C(=O)N(C)[C@H](C(=O)N(C)CC)CC(=O)N(C)[C@@H](CC(F)(F)F)C(=O)N[C@@H]([C@@H](C)CC)C(=O)N(C)CC(=O)N(C)[C@H]3C/C=C\CCN(C3=O)[C@@H](Cc3ccc(C(F)(F)F)cc3)C(=O)N(C)CC(=O)N[C@@H](CCc3cc(F)c(C(F)(F)F)c(F)c3)C(=O)N2C1 [PP1701] | – | 0.08 | – | 3.7 | – | – | – | – | A (a compound having 10 or more and less than 20 is denoted as A) | A (a compound having 10 or more and less than 20 is denoted as A) |
| CCC[C@H]1C(=O)N[C@@H]([C@@H](C)CC)C(=O)N(C2CC2)CC(=O)N(C)[C@H]2C/C=C\CCN(C2=O)[C@@H](Cc2ccc(C)cc2)C(=O)N(C)CC(=O)N[C@@H](CCc2ccc(C(F)(F)F)c(OC)c2)C(=O)N2C[C@H](OCC)C[C@H]2C(=O)N(C)C2(CCC2)C(=O)N(C)[C@@H](C(CC)CC)C(=O)N(C)[C@H](C(=O)N(C)C)CC(=O)N1C [PP2325] | A (a compound having 10 or more and less than 20 is denoted as A) | 0.4 | A (a compound having 10 or more and less than 20 is denoted as A) | 8.2 | – | – | – | – | – | – |
| CCO[C@@H]1C[C@H]2C(=O)NC3(CCC3)C(=O)N(C)[C@@H](C3CCCC3)C(=O)N(C)[C@H](C(=O)N3CCOCC3)CC(=O)N(C)[C@@H](CC(C)(C)C)C(=O)N[C@@H]([C@@H](C)CC)C(=O)N(C)CC(=O)N(C)[C@H]3CCCCCN(C3=O)[C@@H](Cc3ccc(C(F)(F)F)cc3)C(=O)N(C)CC(=O)N[C@@H](CCc3cc(F)c(C(F)(F)F)c(F)c3)C(=O)N2C1 [PP0684] | B (a compound having 3 or more and less than 10 is denoted as B) | 1.1 | B (a compound having 3 or more and less than 10 is denoted as B) | 45 | – | – | – | – | – | – |
| CCO[C@@H]1C[C@H]2C(=O)NC3(CC(C)(C)C3)C(=O)N(C)[C@@H](C3CCCC3)C(=O)N(C)[C@H](C(=O)N(C)CC)CC(=O)N(C)[C@@H]([C@@H](C)OC)C(=O)N[C@@H]([C@@H](C)CC)C(=O)N(C)CC(=O)N(C)[C@H]3C/C=C\CCN(C3=O)[C@@H](Cc3ccc(C(F)(F)F)cc3)C(=O)N(C)CC(=O)N[C@@H](CCc3cc(F)c(C(F)(F)F)c(F)c3)C(=O)N2C1 [PP3160] | – | – | – | 13.2 | A (a compound having 10 or more and less than 20 is denoted as A) | – | A (a compound having 10 or more and less than 20 is denoted as A) | 0.07 | – | – |
| CCO[C@@H]1C[C@H]2C(=O)NC3(CCC3)C(=O)N(C)[C@@H](C3CCCC3)C(=O)N(C)[C@H](C(=O)N3CCOCC3)CC(=O)N(C)[C@@H](CC(C)C)C(=O)N[C@@H](C3CC(F)(F)C3)C(=O)N(C)CC(=O)N(C)[C@H]3CCCCCN(C3=O)[C@@H](Cc3ccc(C(F)(F)F)cc3)C(=O)N(C)CC(=O)N[C@@H](CCc3cc(F)c(C(F)(F)F)c(F)c3)C(=O)N2C1 [PP0816] | – | – | – | 92.5 | A (a compound having 10 or more and less than 20 is denoted as A) | 0.5 | B (a compound having 3 or more and less than 10 is denoted as B) | – | – | – |
| CCCN1C(=O)CN(C)C(=O)[C@@H]2CCN2C(=O)[C@H]([C@@H](C)CC)NC(=O)[C@H](CC(C)C)N(C)C(=O)C[C@@H](C(=O)N(C)C)NC(=O)[C@H](C2CCCC2)N(C)C(=O)C2(CCC2)NC(=O)[C@@H]2CC(F)(F)CN2C(=O)[C@H](CCc2ccc(C(F)(F)F)c(Cl)c2)NC(=O)CN(C)C(=O)[C@@H]1Cc1ccc(C(F)(F)F)cc1 [PP0376] ([NMeL]I[Aze][Sar][NPrPhe(4-CF3)][Sar][hPhe(3-Cl-4-CF3)][Pro(4,4-F2)][Ac4c][NMeGly(cPent)]D-NMe2; lactam N-11) | – | – | – | 114 | B (a compound having 3 or more and less than 10 is denoted as B) | – | B (a compound having 3 or more and less than 10 is denoted as B) | 2 | – | – |
| CCO[C@@H]1C[C@H]2C(=O)NC3(CC(C)(C)C3)C(=O)N(C)[C@@H](C3CCCC3)C(=O)N(C)[C@H](C(=O)N(C)CC)CC(=O)N(C)[C@@H](CC(C)C)C(=O)N[C@@H]([C@@H](C)CC)C(=O)N(C)CC(=O)N(C)[C@H]3C/C=C\CCN(C3=O)[C@@H](Cc3ccc(C(F)F)cc3)C(=O)N(C)CC(=O)N[C@@H](CCc3ccc(CC)c(F)c3)C(=O)N2C1 [PP3157] | – | – | – | 88.5 | A (a compound having 10 or more and less than 20 is denoted as A) | – | A (a compound having 10 or more and less than 20 is denoted as A) | 2.1 | – | – |
| CC[C@H](C)[C@@H]1NC(=O)[C@H](CC2CC2)N(C)C(=O)C[C@@H](C(=O)N(C)C)N(C)C(=O)[C@H](C2CCCC2)N(C)C(=O)C2(CCC2)N(C)C(=O)[C@@H]2C[C@@H](C)CN2C(=O)[C@H](CCc2cc(F)c(C(F)(F)F)c(F)c2)NC(=O)CN(C)C(=O)[C@H](Cc2ccc(C)cc2)N2CC/C=C\C[C@@H](C2=O)N(C)C(=O)[C@@H]2CCCN2C1=O [PP1801] | – | 0.21 | – | 13 | – | – | – | – | A (a compound having 10 or more and less than 20 is denoted as A) | B (a compound having 3 or more and less than 10 is denoted as B) |
